{
  "source": "patent US7482149B2",
  "about": "(priority 2003, dated 2009)",
  "key": {"SARS-CoV [1]": {"system": "SARS-CoV", "format": "cell-based"}, "[2]": {"system": "Herpes simplex virus and varicella-zoster virus", "details": "cited from earlier work"}, "Cytomegalovirus": {"system": "Cytomegalovirus", "details": "cited from earlier work"}, "Herpes simplex mutants": {"system": "Herpes simplex mutants", "details": "cited from earlier work"}, "HIV": {"system": "HIV", "details": "cited from earlier work"}, "[3]": {"system": "HIV and other retroviruses", "details": "cited from earlier work"}, "SARS-CoV [4]": {"system": "SARS-CoV", "details": "ribavirin concentrations that inhibit other sensitive viruses; preliminary; cited from earlier work"}, "Herpes and poxviruses": {"system": "Herpes and poxviruses", "details": "cited from earlier work"}, "Influenza virus": {"system": "Influenza virus", "details": "cited from earlier work"}, "[5]": {"details": "complete (100%) inhibition of CPE up to highest concentration tested, 10,000 PFU/well, MOI 0.5, Vero E6"}},
  "note": "Like-named read-outs stand apart in the source and are kept apart here.",
  "data": [
    {"compound": "Nc1nc2c(ncn2COCCO)c(=O)[nH]1", "note": "[Acyclovir]", "values": [
      {"measurement": "Inhibition of Cytopathic Effect", "setting": "SARS-CoV [1]", "value": "No"},
      {"measurement": "IC50", "setting": "[2]", "value": "0.01 to 13.5", "unit": "µg/mL"}
    ]},
    {"compound": "NC12CC3CC(CC(C3)C1)C2", "note": "[Amantadine]", "values": [
      {"measurement": "Inhibition of Cytopathic Effect", "setting": "SARS-CoV [1]", "value": "No"}
    ]},
    {"compound": "Nc1nc(O)c2ncn(COC(CO)CO)c2n1", "note": "[Cymevene, Ganciclovir]", "values": [
      {"measurement": "Inhibition of Cytopathic Effect", "setting": "SARS-CoV [1]", "value": "No"},
      {"measurement": "IC50", "setting": "Cytomegalovirus", "value": "0.02 to 3.48", "unit": "µg/mL"}
    ]},
    {"compound": "O=C(O)P(=O)(O)O", "note": "[Foscarnet]", "values": [
      {"measurement": "Inhibition of Cytopathic Effect", "setting": "SARS-CoV [1]", "value": "No"},
      {"measurement": "IC50", "setting": "Cytomegalovirus; read-out: IC50", "value": "50 to 800", "unit": "µM"},
      {"measurement": "IC50", "setting": "Herpes simplex mutants", "value": "5 to 443", "unit": "µM"}
    ]},
    {"compound": "CC(C)(C)NC(=O)[C@@H]1CN(Cc2cccnc2)CCN1C[C@@H](O)C[C@@H](Cc1ccccc1)C(=O)N[C@H]1c2ccccc2C[C@H]1O", "note": "[Indinavir]", "values": [
      {"measurement": "Inhibition of Cytopathic Effect", "setting": "SARS-CoV [1]; [5]", "value": "No"},
      {"measurement": "IC50", "setting": "HIV; read-out: IC50", "value": "25 to 100", "unit": "nM"}
    ]},
    {"compound": "Cc1c(O)cccc1C(=O)N[C@@H](CSc1ccccc1)[C@H](O)CN1C[C@H]2CCCC[C@H]2C[C@H]1C(=O)NC(C)(C)C", "note": "[Nelfinavir]", "values": [
      {"measurement": "Inhibition of Cytopathic Effect", "setting": "SARS-CoV [1]", "value": "No"},
      {"measurement": "EC95", "setting": "HIV", "value": "7 to 196", "unit": "nM"}
    ]},
    {"compound": "CCOC(=O)C1=C[C@@H](OC(CC)CC)[C@H](NC(C)=O)[C@@H](N)C1", "note": "[Oseltamivir]", "values": [
      {"measurement": "Inhibition of Cytopathic Effect", "setting": "SARS-CoV [1]", "value": "No"}
    ]},
    {"compound": "NC(=O)c1ncn([C@@H]2O[C@H](CO)[C@@H](O)[C@H]2O)n1", "note": "[Ribavirin]", "values": [
      {"measurement": "concentrations showing inhibitory activity", "setting": "SARS-CoV [1]; all three viral loads", "value": "0.5 to 5", "unit": "mg/mL"},
      {"measurement": "Inhibition of Cytopathic Effect", "setting": "SARS-CoV [1]; [5]", "value": "Yes"},
      {"measurement": "Complete inhibition of cytopathic effect (CIA100)", "setting": "SARS-CoV [1]; virus load 100 PFU/well", "value": "1,000 μg/mL"},
      {"measurement": "Complete inhibition of cytopathic effect (CIA100)", "setting": "SARS-CoV [1]; virus load 1,000 PFU/well", "value": "10,000 μg/mL"},
      {"measurement": "Complete inhibition of cytopathic effect (CIA100)", "setting": "SARS-CoV [1]; virus load 10,000 PFU/well", "value": "5,000 μg/mL"},
      {"measurement": "Complete inhibition of cytopathic effect (CIA100)", "setting": "SARS-CoV [1]; virus load 10,000 PFU/well, listed as Ribavarin", "value": "10,000 μg/mL"},
      {"measurement": "IC50", "setting": "[3]", "value": "25 to 100", "unit": "µg/mL"},
      {"measurement": "inhibition of replication or cell-to-cell spread of the SARS-CoV", "setting": "SARS-CoV [4]", "value": "do not inhibit"},
      {"measurement": "cytotoxicity", "setting": "Vero E6 cells", "value": "slight cytotoxicity"},
      {"measurement": "concentrations at which cytotoxic effects were observed", "setting": "Vero E6 cells; African green monkey", "value": "0.2 to 1", "unit": "mg/mL"},
      {"measurement": "MIC", "setting": "Herpes and poxviruses", "value": "3.2 to 50", "unit": "µg/mL"},
      {"measurement": "IC50", "setting": "Influenza virus", "value": "1 to 25", "unit": "µg/mL"}
    ]},
    {"compound": "CC(C)(C)NC(=O)[C@@H]1C[C@@H]2CCCC[C@@H]2CN1C[C@@H](O)[C@H](Cc1ccccc1)NC(=O)[C@H](CC(N)=O)NC(=O)c1ccc2ccccc2n1", "note": "[Saquinavir]", "values": [
      {"measurement": "Inhibition of Cytopathic Effect", "setting": "SARS-CoV [1]", "value": "No"},
      {"measurement": "IC50", "setting": "HIV; read-out: IC50", "value": "1 to 30", "unit": "nM"}
    ]},
    {"compound": "CC(=O)N[C@H]1[C@H]([C@H](O)[C@H](O)CO)OC(C(=O)O)=C[C@@H]1N=C(N)N", "note": "[Zanamivir]", "values": [
      {"measurement": "Inhibition of Cytopathic Effect", "setting": "SARS-CoV [1]", "value": "No"},
      {"measurement": "IC50", "setting": "Influenza virus; read-out: IC50", "value": "0.005 to 16", "unit": "µM"}
    ]},
    {"compound": "Cc1cn([C@H]2C[C@H](N=[N+]=[N-])[C@@H](CO)O2)c(=O)[nH]c1=O", "note": "[Zidovudine]", "values": [
      {"measurement": "Inhibition of Cytopathic Effect", "setting": "SARS-CoV [1]; [5]", "value": "No"},
      {"measurement": "IC50", "setting": "HIV", "value": "3 to 13", "unit": "ng/mL"}
    ]},
    {"compound": "Interferon α2b", "values": [
      {"measurement": "Inhibition of Cytopathic Effect", "setting": "SARS-CoV [1]", "value": "No"}
    ]}
  ]
}
